The structures appear in SMILES notation. Some results are limits rather than exact numbers.

On to `O=[N+]([O-])C=CC1=CCN(c2ccccc2)N1`, for which the melting point – broadly, the temperature of the solid-liquid transition – stood at 150 °C.

`CC1(C)CCC23CCC4(C)C(CCC5C6(C)CCC(O)C(C)(C)C6CCC54C)C2C1OC3` (configuration not stated) returned a melting point of 268 to 269 °C.

Consider `COC(CC#N)=NC#N`, for which the melting point was 45.5 °C.

Turning to `O=C(Nc1ccc(-c2nc(-c3ccco3)no2)c(Cl)c1)OCC(Cl)(Cl)Cl`, the melting point is 219 to 220 °C.

`O=C(O)CCN=c1sc2ccccc2s1` gave a melting point of 203 to 204 °C.

As to `CCn1c(OC)n[nH]c1=O`, the melting point came out at 130 °C.

In turn, `CCc1c(C)[nH]c2c1C(=S)C1CNCCC1C2` (configuration not stated) returned a melting point of 190 to 194 °C.

On to `Cc1noc(C2C(=O)Nc3cc(Cl)ccc3C2=O)n1` (configuration not stated), for which the melting point is greater than 320 °C.

Compound `FC(F)(F)c1ccc(C2=CCC(N3CCN(Cc4ccccc4)CC3)CC2)cc1` (configuration not stated) yielded a melting point of 115 to 116 °C.

`CC(=O)Oc1ccc(OC(C)=O)c(-c2ccc(C)cc2)c1` registered a melting point of 94 to 96 °C.

As for `O=S1(=O)NCc2ccccc2O1`, the melting point was in the range of 89 to 90 °C.

With `Cc1cccc(C)c1CNc1cc(C(=O)N(C)C)nc2c(C)c(C)n(Cc3ccccc3)c12`, the melting point is 203 °C.

For `C=Cc1ccc(CNc2ccccn2)c(Cl)c1`, the melting point is 119 to 121 °C.

In the case of `Cc1ccccc1-c1cc(N2CCN(C(=O)CO)CC2)ncc1C(=O)N(C)Cc1cc(C(F)(F)F)cc(C(F)(F)F)c1`, the melting point lay in the range of 91 to 93 °C.

`COc1ccc(CCNCC(O)CO)cc1OC` (configuration not stated) gave a melting point of 80 to 82 °C.

`CS(=O)(=O)c1ccc(C(Cc2ccc(F)cc2)C(=O)Nc2nc3ccc(CO)cc3o2)cc1` (configuration not stated) returned a melting point of 128 to 130 °C.

The compound `Cc1cc(C)n2nc(S(=O)(=O)Nc3ccccc3Cl)nc2n1` yielded a melting point of 188 to 190 °C.

As to `CC(C)(C)OC(=O)Nc1ccc(-c2ccc(OCc3ccccc3)nc2)cc1NC(=O)CC(=O)c1cccc(-n2ccnc2)c1`, the melting point is 79 to 83 °C.

The compound `Cc1ccc(S(=O)(=O)N[C@@H](C)C(=O)Oc2csc(-c3ccccc3)n2)cc1` returned a melting point of 110 to 112 °C.

In turn, `COc1cccc(/C=C/c2nc3c([nH]2)c(=O)n(C)c(=O)n3C)c1OC` registered a melting point of 289 to 290 °C.

On to `NC(=O)N=C1SCCN1Cc1ccccc1`, for which the melting point lay in the range of 143 to 145 °C.

In the case of `Brc1ccc2c(ccn2Cc2ccccc2)c1`, the melting point came to 90 °C.

As to `CCNC(=O)NCC(CO)c1cccc2ccc(OC)cc12` (configuration not stated), the melting point was 120 to 122 °C.

`COc1ccccc1N1CCN(CC(O)COc2ccccc2CC(N)=O)CC1` (configuration not stated) registered a melting point of 120 to 122 °C.

For `CC[C@@H](c1ccccc1)N(Cc1cccc(C(=O)O)c1)S(=O)(=O)c1ccc(Cl)cc1`, the melting point is 65 to 67 °C.

`CSc1ccc(C)c2onc(OCCNC(=O)OC(C)(C)C)c12` displayed a melting point of 85 to 86 °C.

`Nc1ccc(OCc2c(Cl)cccc2Cl)cc1[N+](=O)[O-]` came in with a melting point of 155 °C.

Regarding `O=C(Nc1ccccn1)c1nc(-c2ccccc2)c2ccccc2c1O`, the melting point lay within 228 to 230 °C.

The compound `CC(=O)NOC(=O)Cc1cnc2ccccc2c1O` yielded a melting point of 224 to 225 °C.

The compound `Cn1nnnc1C=C(c1ccccc1)c1ccccc1` had a melting point of 147 to 148 °C.

The compound `CC(C)CS(=O)(=O)c1ccnc(OS(C)(=O)=O)c1` showed a melting point of 75.5 to 76.5 °C.

On to `COc1ccc(C(C)C)cc1-c1cc(-c2nnnn2CCc2ccccc2)c(O)cc1O`, for which the melting point lay in the range of 206 to 209 °C.

Compound `CC(C)(C)c1cc(SCCC(=O)N2CCOCC2)cc(C(C)(C)C)c1O` had a melting point of 136 to 138 °C.

Consider `CSc1ccc(-c2ccc(C(=O)Nc3ccc4cc(CN5CCCC5)cnc4c3C)c(F)c2)cc1`, for which the melting point fell in the range of 189 to 190 °C.

`CC(C)(C)c1cc([N+](=O)[O-])cc(C(C)(C)C)c1O` showed a melting point of 167 to 168 °C.

For the compound `N#Cc1cc(F)c(NC(=O)CC(=O)C(F)(F)F)cc1F`, the melting point fell in the range of 176 to 181 °C.

`C=CCNc1ccc(N)cc1[N+](=O)[O-]`: the melting point was in the range of 80 to 83 °C.

(Values after a melting point compilation (Tetko et al.; mined from patent text by program, amines drawn as free bases though some values may be those of a salt).)
